Read-outs that look alike come from different tables or passages of the source.
Assays:
FAAH [1] = molecular target: T1, FAAH (Mus musculus, UniProt O08914); assay: In vivo FAAH inhibition, liver, after oral administration to mice; details: for in vivo FAAH inhibitory activity, liver: 0.1 mg kg^−1, mouse, p.o., text b31; for time of maximum inhibitory effect in the liver: 0.1 mg kg^−1 p.o., mice, post-dose
T1 sequence (O08914 1-579): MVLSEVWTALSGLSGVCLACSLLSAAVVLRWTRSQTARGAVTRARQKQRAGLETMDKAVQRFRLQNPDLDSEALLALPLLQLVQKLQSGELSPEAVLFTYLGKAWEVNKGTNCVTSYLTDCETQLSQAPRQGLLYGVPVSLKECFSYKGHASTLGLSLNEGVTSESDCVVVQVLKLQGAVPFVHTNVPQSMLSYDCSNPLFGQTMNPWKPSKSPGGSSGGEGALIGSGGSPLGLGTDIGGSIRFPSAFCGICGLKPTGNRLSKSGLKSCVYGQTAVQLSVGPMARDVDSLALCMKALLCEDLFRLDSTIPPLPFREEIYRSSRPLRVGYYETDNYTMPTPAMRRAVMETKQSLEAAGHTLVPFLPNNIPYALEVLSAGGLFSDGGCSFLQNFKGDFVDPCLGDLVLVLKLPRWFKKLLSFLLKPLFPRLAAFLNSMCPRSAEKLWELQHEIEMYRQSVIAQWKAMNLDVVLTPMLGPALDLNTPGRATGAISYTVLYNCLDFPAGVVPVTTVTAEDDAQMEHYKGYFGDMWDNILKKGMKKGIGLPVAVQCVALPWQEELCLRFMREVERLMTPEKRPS

carboxylesterases (CEs) = assay: CE activity in rat liver microsomes; type: biochemical; details: for CEs (10 μM), percent of control: 10 μM in rat liver microsomes; for CEs activity, percent of control: C inhib=10 μM in rat liver microsomes, Table 2; for selectivity over CEs: text b31
MAGL = molecular target: T2, MAGL (Rattus norvegicus, UniProt Q8R431); assay: MAGL activity in rat cerebellum cytosol; type: biochemical; details: for MAGL activity, percent of control / MAGL (100 μM), percent of control: C inhib=100 μM in rat cerebellum cytosol; for MAGL activity, percent of control: Table 2; for selectivity over MAGL: text b31
T2 sequence (Q8R431 1-303): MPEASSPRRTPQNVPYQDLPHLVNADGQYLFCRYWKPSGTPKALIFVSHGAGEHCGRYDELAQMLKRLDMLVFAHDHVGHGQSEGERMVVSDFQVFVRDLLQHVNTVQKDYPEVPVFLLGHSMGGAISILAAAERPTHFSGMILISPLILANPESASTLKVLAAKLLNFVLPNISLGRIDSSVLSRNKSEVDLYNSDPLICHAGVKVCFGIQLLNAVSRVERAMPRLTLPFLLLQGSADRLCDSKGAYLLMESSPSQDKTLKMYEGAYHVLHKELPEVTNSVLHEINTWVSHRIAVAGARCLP

FAAH [2] = details: read-out: FAAH IC50 (in vitro potency); cited from earlier work
FAAH [3] = molecular target: T1, FAAH; assay: In vivo FAAH inhibition, brain, after oral administration to mice; details: for in vivo FAAH inhibitory activity, brain: text b31; for time of maximal inhibitory effect in the brain (t max): post-dose; for ED50 cerebral FAAH: 0.001 to 3 mg kg^−1, 8 h post-administration
FAAH [4] = molecular target: T3, FAAH (Rattus norvegicus, UniProt P97612); assay: In vitro FAAH activity in rat brain homogenates/membranes; type: biochemical
T3 sequence (P97612 1-579): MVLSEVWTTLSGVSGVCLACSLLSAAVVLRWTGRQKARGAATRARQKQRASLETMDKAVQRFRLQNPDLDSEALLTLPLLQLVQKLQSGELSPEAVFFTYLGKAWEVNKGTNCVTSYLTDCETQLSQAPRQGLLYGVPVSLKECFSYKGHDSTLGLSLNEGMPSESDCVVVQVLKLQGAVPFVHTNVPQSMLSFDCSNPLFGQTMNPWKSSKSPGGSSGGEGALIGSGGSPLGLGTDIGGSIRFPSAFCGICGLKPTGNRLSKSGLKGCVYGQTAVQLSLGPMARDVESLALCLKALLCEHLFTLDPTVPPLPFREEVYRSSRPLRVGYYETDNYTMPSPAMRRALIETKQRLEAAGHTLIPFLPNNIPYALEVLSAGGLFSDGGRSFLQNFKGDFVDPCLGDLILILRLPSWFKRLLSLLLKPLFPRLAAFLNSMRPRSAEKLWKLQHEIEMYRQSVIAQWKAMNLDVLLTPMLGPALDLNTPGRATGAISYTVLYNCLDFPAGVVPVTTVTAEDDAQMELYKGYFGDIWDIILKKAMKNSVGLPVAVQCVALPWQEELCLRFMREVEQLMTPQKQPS

[5] = CYP450 metabolic stability, mouse liver microsomes; type: in vitro ADME; details: 1 h incubation; for CYP450 metabolic stability, Mouse, percent of remaining: 5 μM in liver microsomes; for CYPs (50 μM), percentage remaining: C inhib=50 μM in mouse liver microsomes
[6] = CYP450 metabolic stability, rat liver microsomes; type: in vitro ADME; details: 5 μM in liver microsomes, 1 h incubation
[7] = CYP450 metabolic stability, dog liver microsomes; type: in vitro ADME; details: 5 μM in liver microsomes, 1 h incubation
[8] = CYP450 metabolic stability, primate liver microsomes; type: in vitro ADME; details: 5 μM in liver microsomes, 1 h incubation
[9] = CYP450 metabolic stability, human liver microsomes; type: in vitro ADME; details: 5 μM in liver microsomes, 1 h incubation
[10] = 0.1 mg kg^−1 p.o. in mice, 8 h after administration, Table 4
[11] = 30 mg kg^−1 p.o. in mice, 1 h after administration, Table 2
[12] = 0.1 mg kg^−1 p.o. in mice, 8 h after administration, Table 5
[13] = mouse, po, 8 h, read-out: ED50 liver FAAH

SMILES | Liver FAAH activity, percent of control (FAAH [1]; [10]) | Liver FAAH activity, percent of control (FAAH [1]; [11]) | CEs (10 μM), percent of control (carboxylesterases (CEs); Table 4) | CEs activity, percent of control (carboxylesterases (CEs)) | MAGL activity, percent of control (MAGL) | MAGL (100 μM), percent of control (MAGL; Table 4) | Brain FAAH activity, percent of control (FAAH [3]; [10]) | Brain FAAH activity, percent of control (FAAH [3]; [11]) | in vivo FAAH inhibitory activity, liver (FAAH [1]) | time of maximum inhibitory effect in the liver (FAAH [1]) [h] | ED50 (FAAH [1]; [13]) [µg/kg] | selectivity over CEs (carboxylesterases (CEs)) | selectivity over MAGL (MAGL) | CYP450 metabolic stability, Mouse, percent of remaining [5] | CYP450 metabolic stability, Rat, percent of remaining [6] | CYP450 metabolic stability, Dog, percent of remaining [7] | CYP450 metabolic stability, Primate, percent of remaining [8] | CYP450 metabolic stability, Human, percent of remaining [9] | in vivo FAAH inhibitory activity, brain (FAAH [3]; 0.1 mg kg^−1, mouse, p.o.) | CYPs (50 μM), percentage remaining [5] [percentage remaining] | further results
NC(=O)c1cccc(-c2cccc(OC(=O)NC3CCCCC3)c2)c1 [Compound 2, URB597, reference compound] | 74±20% of control | 6±1% of control | […] | […] | 87±4% of control | 87±4% of control | 91±7% of control | 9±2% of control | – | – | – | – | – | – | – | – | – | – | – | – | inhibition at 30 mg/kg (FAAH [1]; mouse, po, read-out: FAAH inhibition in the liver): > 90%; IC50 (FAAH [2]): […]; FAAH inhibition in the brain (FAAH [3]; 30 mg kg^−1 p.o., mice, 1 h post-administration): over 90%
CN(C(=O)n1cnc(-c2ccccc2)c1)C1CCN(Cc2ccccc2)CC1 [Compound 8 h] | – | – | – | – | – | – | – | – | > 90 % of control | 1 | 28 | > 80 % of control | > 80 % of control | 62±0% of remaining | 88±6% of remaining | 54±0% of remaining | 41±3% of remaining | 75±4% of remaining | > 90 % of control | – | FAAH activity, percent of control, 100 nM (FAAH [4]; rat brain homogenates, 15 min pre-incubation, Table 5): 41±7% of control; Liver FAAH activity, percent of control (FAAH [1]; [12]): 10±2% of control; inhibition at 0.1 mg/kg (FAAH [1]; mouse, po, read-out: peripheral (liver) FAAH inhibition): > 90%; CEs (10 μM), percent of control (carboxylesterases (CEs); Table 5): 97±8% of control; MAGL (100 μM), percent of control (MAGL; Table 5): 92±8% of control; cerebral (brain) FAAH inhibition (FAAH [3]; 0.1 mg kg^−1, mouse, p.o., 8 h post-dose): over 90%; Brain FAAH activity, percent of control (FAAH [3]; [12]): 11±4% of control; time of maximal inhibitory effect in the brain (t max) (FAAH [3]; 0.1 mg kg^−1 p.o., mice): 8 h; central FAAH inhibition maintained up to 48 h post-administration (FAAH [3]; 0.1 mg kg^−1 p.o., mice, up to 48 h): > 50%; ED50 cerebral FAAH (FAAH [3]; mice, p.o.): approximately 79 μg kg^−1
CC1(C)COCN1C(=O)n1nnc2ccccc21 [Compound 11 a] | 10±4% of control | 2±1% of control | 81±6% of control | 81±6% of control | 90±5% of control | 90±5% of control | 24±7% of control | 0±0% of control | – | – | – | – | – | 5±0% of remaining | 26±0% of remaining | 1±0% of remaining | 0±0% of remaining | 52±9% of remaining | – | 25±2 | IC50 (FAAH [4]): 19 nM; FAAH activity, percent of control, 10 nM (FAAH [4]; 10 nM, rat brain homogenates, 15 min pre-incubation, Table 2): 78±25% of control; FAAH activity, percent of control, 100 nM (FAAH [4]; rat brain homogenates, 15 min pre-incubation, Table 2): 2±1% of control; ED50 (FAAH [1]; mouse, po, 1 h, read-out: ED50 liver (peripheral) FAAH): 7 µg/kg; ED50 brain (cerebral) FAAH (FAAH [3]; mouse, p.o., 0.001–3.0 mg kg^−1, 1 h post-dose): 61 µg/kg
CC1(C)COCN1C(=O)n1nnc2ccc(Br)cc21 [Compound 11 b, (6‐Bromo‐1H‐benzo[d][1,2,3]triazol‐1‐yl)(4,4‐dimethyloxazolidin‐3‐yl)methanone] | 16±6% of control | – | 73±9% of control | – | – | 67±12% of control | 77±29% of control | – | – | – | – | – | – | – | – | – | – | – | – | 8±2 | –
CC1(C)COCN1C(=O)n1nnc2cc(C(N)=O)ccc21 [Compound 11 h, 1‐(4,4‐Dimethyloxazolidine‐3‐carbonyl)‐1H‐benzo[d][1,2,3]triazole‐5‐carboxamide] | 6±1% of control | – | 81±7% of control | – | – | 96±2% of control | 6±1% of control | – | > 90 % of control | 1 | 7 | > 80 % of control | > 80 % of control | 87±9% of remaining | 87±0% of remaining | 101±6% of remaining | 57±3% of remaining | 96±8% of remaining | > 90 % of control | 67±2 | inhibition at 0.1 mg/kg (FAAH [1]; mouse, po, read-out: peripheral inhibition of FAAH sustained over the next 7 h): > 90%; time of maximal inhibitory effect in the brain (t max) (FAAH [3]; 0.1 mg kg^−1 p.o., mice): 1 h; ED50 cerebral FAAH (FAAH [3]; mice, p.o.): 14 µg/kg

— article PMC6582431 (Chemmedchem, 2018)
